Consider 19 compounds from the NIST ThermoML archive (doi:10.1016/j.jct.2016.08.008).

SMILES strings stand for the structures. Numbers after ± are expanded uncertainties.

The series is described as follows: activity coefficient (dimensionless); of the first substance listed, at infinite dilution; xn = mol fraction of the nth substance listed. The note with it: 101.33 kPa, Liquid, Chromatography, x1 = 0.

With `CCCc1ccccc1` [propylbenzene] + CCCCCCCCCCCCn1cc[n+](C)c1.O=S(=O)([N-]S(=O)(=O)C(F)(F)F)C(F)(F)F, the activity coefficient is, setting by setting: (318.15 K) 1.1 ± 0.07; (328.15 K) 1.15 ± 0.07; (338.15 K) 1.21 ± 0.08; (348.15 K) 1.25 ± 0.08; (358.15 K) 1.3 ± 0.08; (368.15 K) 1.35 ± 0.09.
Regarding `CCCCCCCCCC` [decane] + CCCCCCCCCCCCn1cc[n+](C)c1.O=S(=O)([N-]S(=O)(=O)C(F)(F)F)C(F)(F)F, the activity coefficient came to 5.82 ± 0.4 (318.15 K); 5.88 ± 0.4 (328.15 K); 5.95 ± 0.41 (338.15 K); 6 ± 0.41 (348.15 K); 6.06 ± 0.41 (358.15 K); 6.12 ± 0.42 (368.15 K).
With `CCO` [ethanol] + CCCCCCCCCCCCn1cc[n+](C)c1.O=S(=O)([N-]S(=O)(=O)C(F)(F)F)C(F)(F)F, the activity coefficient reads like this: (318.15 K) 1.38 ± 0.09; (328.15 K) 1.3 ± 0.08; (338.15 K) 1.23 ± 0.08; (348.15 K) 1.17 ± 0.07; (358.15 K) 1.11 ± 0.07; (368.15 K) 1.06 ± 0.07.
On to `CCCO` [propan-1-ol] + CCCCCCCCCCCCn1cc[n+](C)c1.O=S(=O)([N-]S(=O)(=O)C(F)(F)F)C(F)(F)F, for which the activity coefficient amounted to 1.45 ± 0.1 (318.15 K); 1.36 ± 0.09 (328.15 K); 1.29 ± 0.08 (338.15 K); 1.22 ± 0.08 (348.15 K); 1.16 ± 0.07 (358.15 K); 1.11 ± 0.07 (368.15 K).
Take `CCC(C)(C)C` [2,2-dimethylbutane] + CCCCCCCCCCCCn1cc[n+](C)c1.O=S(=O)([N-]S(=O)(=O)C(F)(F)F)C(F)(F)F: the activity coefficient amounted to 2.83 ± 0.19 (318.15 K); 2.89 ± 0.2 (328.15 K); 2.95 ± 0.2 (338.15 K); 3 ± 0.2 (348.15 K); 3.05 ± 0.21 (358.15 K); 3.1 ± 0.21 (368.15 K).
For the compound `C#CCCC` [1-pentyne] + CCCCCCCCCCCCn1cc[n+](C)c1.O=S(=O)([N-]S(=O)(=O)C(F)(F)F)C(F)(F)F, the activity coefficient is 1.07 ± 0.07 (318.15 K); 1.11 ± 0.07 (328.15 K); 1.16 ± 0.07 (338.15 K); 1.2 ± 0.08 (348.15 K); 1.24 ± 0.08 (358.15 K); 1.28 ± 0.08 (368.15 K).
Turning to `C1CCCC1` [cyclopentane] + CCCCCCCCCCCCn1cc[n+](C)c1.O=S(=O)([N-]S(=O)(=O)C(F)(F)F)C(F)(F)F, the activity coefficient (318.15 K) is 1.75 ± 0.12; the activity coefficient (328.15 K) came to 1.77 ± 0.12; the activity coefficient (338.15 K) worked out at 1.8 ± 0.12; the activity coefficient (348.15 K) is 1.82 ± 0.12; the activity coefficient (358.15 K) came to 1.84 ± 0.12; the activity coefficient (368.15 K) is 1.86 ± 0.13.
In the case of `C=CCCC` [1-pentene] + CCCCCCCCCCCCn1cc[n+](C)c1.O=S(=O)([N-]S(=O)(=O)C(F)(F)F)C(F)(F)F, the activity coefficient reads like this: (318.15 K) 1.82 ± 0.12; (328.15 K) 1.88 ± 0.13; (338.15 K) 1.93 ± 0.13; (348.15 K) 1.99 ± 0.14; (358.15 K) 2.04 ± 0.14; (368.15 K) 2.08 ± 0.14.
For the compound `CC(C)O` [propan-2-ol] + CCCCCCCCCCCCn1cc[n+](C)c1.O=S(=O)([N-]S(=O)(=O)C(F)(F)F)C(F)(F)F, the activity coefficient is, setting by setting: (318.15 K) 1.34 ± 0.09; (328.15 K) 1.26 ± 0.08; (338.15 K) 1.18 ± 0.08; (348.15 K) 1.12 ± 0.07; (358.15 K) 1.07 ± 0.07; (368.15 K) 1.02 ± 0.06.
For the compound `C=C(C)c1ccccc1` [(1-methylethenyl)benzene] + CCCCCCCCCCCCn1cc[n+](C)c1.O=S(=O)([N-]S(=O)(=O)C(F)(F)F)C(F)(F)F, the activity coefficient runs as follows: (318.15 K) 0.79 ± 0.05; (328.15 K) 0.842 ± 0.054; (338.15 K) 0.896 ± 0.057; (348.15 K) 0.949 ± 0.06; (358.15 K) 1 ± 0.06; (368.15 K) 1.05 ± 0.07.
As for `CCc1ccccc1` [ethylbenzene] + CCCCCCCCCCCCn1cc[n+](C)c1.O=S(=O)([N-]S(=O)(=O)C(F)(F)F)C(F)(F)F, the activity coefficient stood at 0.911 ± 0.058 (318.15 K); 0.951 ± 0.06 (328.15 K); 0.992 ± 0.062 (338.15 K); 1.03 ± 0.06 (348.15 K); 1.07 ± 0.07 (358.15 K); 1.11 ± 0.07 (368.15 K).
As for `C1=CCCCC1` [cyclohexene] + CCCCCCCCCCCCn1cc[n+](C)c1.O=S(=O)([N-]S(=O)(=O)C(F)(F)F)C(F)(F)F, the activity coefficient by setting is: (318.15 K) 1.56 ± 0.1; (328.15 K) 1.59 ± 0.11; (338.15 K) 1.62 ± 0.11; (348.15 K) 1.65 ± 0.11; (358.15 K) 1.68 ± 0.11; (368.15 K) 1.71 ± 0.11.
Take `CC(C)(C)O` [2-methylpropan-2-ol] + CCCCCCCCCCCCn1cc[n+](C)c1.O=S(=O)([N-]S(=O)(=O)C(F)(F)F)C(F)(F)F: the activity coefficient (318.15 K) was 1.12 ± 0.07; the activity coefficient (328.15 K) stood at 1.08 ± 0.07; the activity coefficient (338.15 K) was 1.04 ± 0.07; the activity coefficient (348.15 K) amounted to 0.998 ± 0.062; the activity coefficient (358.15 K) is 0.964 ± 0.061; the activity coefficient (368.15 K) is 0.933 ± 0.059.
For the compound `C#CCCCCC` [1-heptyne] + CCCCCCCCCCCCn1cc[n+](C)c1.O=S(=O)([N-]S(=O)(=O)C(F)(F)F)C(F)(F)F, the activity coefficient came to 1.47 ± 0.1 (318.15 K); 1.53 ± 0.1 (328.15 K); 1.59 ± 0.11 (338.15 K); 1.65 ± 0.11 (348.15 K); 1.7 ± 0.11 (358.15 K); 1.76 ± 0.12 (368.15 K).
For `C=CCCCCCC` [oct-1-ene] + CCCCCCCCCCCCn1cc[n+](C)c1.O=S(=O)([N-]S(=O)(=O)C(F)(F)F)C(F)(F)F, the activity coefficient runs as follows: (318.15 K) 3.03 ± 0.21; (328.15 K) 3.1 ± 0.21; (338.15 K) 3.17 ± 0.22; (348.15 K) 3.23 ± 0.22; (358.15 K) 3.29 ± 0.22; (368.15 K) 3.35 ± 0.23.
On to `c1ccsc1` [thiophene] + CCCCCCCCCCCCn1cc[n+](C)c1.O=S(=O)([N-]S(=O)(=O)C(F)(F)F)C(F)(F)F, for which the activity coefficient (318.15 K) was 0.559 ± 0.04; the activity coefficient (328.15 K) is 0.579 ± 0.041; the activity coefficient (338.15 K) turned out to be 0.6 ± 0.042; the activity coefficient (348.15 K) worked out at 0.62 ± 0.043; the activity coefficient (358.15 K) was 0.639 ± 0.044; the activity coefficient (368.15 K) is 0.658 ± 0.045.
For `Cc1ccccc1C` [1,2-dimethylbenzene] + CCCCCCCCCCCCn1cc[n+](C)c1.O=S(=O)([N-]S(=O)(=O)C(F)(F)F)C(F)(F)F, the activity coefficient by setting is: (318.15 K) 0.812 ± 0.053; (328.15 K) 0.851 ± 0.055; (338.15 K) 0.892 ± 0.057; (348.15 K) 0.93 ± 0.06; (358.15 K) 0.968 ± 0.061; (368.15 K) 1.01 ± 0.06.
For `C=CCCCCCCCC` [1-decene] + CCCCCCCCCCCCn1cc[n+](C)c1.O=S(=O)([N-]S(=O)(=O)C(F)(F)F)C(F)(F)F, the activity coefficient runs as follows: (318.15 K) 4.18 ± 0.28; (328.15 K) 4.27 ± 0.29; (338.15 K) 4.36 ± 0.3; (348.15 K) 4.44 ± 0.3; (358.15 K) 4.52 ± 0.31; (368.15 K) 4.6 ± 0.31.
Consider `CCCCCCCC` [octane] + CCCCCCCCCCCCn1cc[n+](C)c1.O=S(=O)([N-]S(=O)(=O)C(F)(F)F)C(F)(F)F, for which the activity coefficient is, setting by setting: (318.15 K) 4.17 ± 0.28; (328.15 K) 4.22 ± 0.29; (338.15 K) 4.27 ± 0.29; (348.15 K) 4.32 ± 0.29; (358.15 K) 4.37 ± 0.3; (368.15 K) 4.42 ± 0.3.
